The values below come from US7247643B2, “8-aza-bicyclo (3.2.1) octane derivatives and their use as monoamine neurotransmitter re-uptake inhibitors” (NeuroSearch A/S, priority 2003, dated 2007).

Structures are written as SMILES. Counter-ions that a name gives are not always drawn.

Data set [1] has as its target T1, 5-HT-uptake (reuptake of serotonin in synaptosomes) (Rattus norvegicus, UniProt P31652).
T1 construct: In synaptosomes as described in WO 97/16451; from tissue
In words: Inhibition of serotonin (5-HT) reuptake in synaptosomes. Type of data set: biochemical. The method, then:
(§1) A number of compounds were tested for their ability to inhibit the reuptake of the monoamine neurotransmitters dopamine (DA) noradrenaline(NA) and serotonin (5-HT) In synaptosomes as described in WO 97/16451.
(§2) The test values are given as IC50 (the concentration (μM) of the test substance which inhibits the specific binding of ^3H-DA, ^3H-NA, or ^3H-5-HT by 50%).

Data set [2] has as its target T2, NA-uptake (reuptake of noradrenaline in synaptosomes) (Rattus norvegicus, UniProt Q9WTR4).
T2 construct: In synaptosomes as described in WO 97/16451; from tissue
In words: Inhibition of noradrenaline (NA) reuptake in synaptosomes. Type of data set: biochemical. The method, then: as §1, §2

For data set [3], the target named is T3, DA-uptake (reuptake of dopamine in synaptosomes) (Rattus norvegicus, UniProt P23977).
T3 construct: In synaptosomes as described in WO 97/16451; from tissue
In words: Inhibition of dopamine (DA) reuptake in synaptosomes. It counts as biochemical. As to the method:
as §1, §2

What is called melting point is the temperature of the solid-liquid transition. The term IC50 denotes the concentration that gives 50% inhibition.

T1 sequence (P31652 whole entry): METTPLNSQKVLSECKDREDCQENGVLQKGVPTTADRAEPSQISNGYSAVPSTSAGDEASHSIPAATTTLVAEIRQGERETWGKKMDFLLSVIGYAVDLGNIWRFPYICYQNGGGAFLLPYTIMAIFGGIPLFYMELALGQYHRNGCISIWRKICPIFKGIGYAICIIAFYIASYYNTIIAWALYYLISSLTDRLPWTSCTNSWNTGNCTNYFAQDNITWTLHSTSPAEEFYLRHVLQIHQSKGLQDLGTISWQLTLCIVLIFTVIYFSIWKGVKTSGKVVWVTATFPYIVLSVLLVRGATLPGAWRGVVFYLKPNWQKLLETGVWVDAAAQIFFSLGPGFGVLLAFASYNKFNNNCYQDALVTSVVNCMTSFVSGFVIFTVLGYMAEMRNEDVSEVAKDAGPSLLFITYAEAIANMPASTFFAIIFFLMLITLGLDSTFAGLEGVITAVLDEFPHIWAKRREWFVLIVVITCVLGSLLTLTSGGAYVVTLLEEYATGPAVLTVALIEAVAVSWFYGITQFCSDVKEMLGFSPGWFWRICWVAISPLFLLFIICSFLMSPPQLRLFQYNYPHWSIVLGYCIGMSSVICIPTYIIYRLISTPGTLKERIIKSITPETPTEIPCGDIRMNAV
T3 sequence (P23977 whole entry): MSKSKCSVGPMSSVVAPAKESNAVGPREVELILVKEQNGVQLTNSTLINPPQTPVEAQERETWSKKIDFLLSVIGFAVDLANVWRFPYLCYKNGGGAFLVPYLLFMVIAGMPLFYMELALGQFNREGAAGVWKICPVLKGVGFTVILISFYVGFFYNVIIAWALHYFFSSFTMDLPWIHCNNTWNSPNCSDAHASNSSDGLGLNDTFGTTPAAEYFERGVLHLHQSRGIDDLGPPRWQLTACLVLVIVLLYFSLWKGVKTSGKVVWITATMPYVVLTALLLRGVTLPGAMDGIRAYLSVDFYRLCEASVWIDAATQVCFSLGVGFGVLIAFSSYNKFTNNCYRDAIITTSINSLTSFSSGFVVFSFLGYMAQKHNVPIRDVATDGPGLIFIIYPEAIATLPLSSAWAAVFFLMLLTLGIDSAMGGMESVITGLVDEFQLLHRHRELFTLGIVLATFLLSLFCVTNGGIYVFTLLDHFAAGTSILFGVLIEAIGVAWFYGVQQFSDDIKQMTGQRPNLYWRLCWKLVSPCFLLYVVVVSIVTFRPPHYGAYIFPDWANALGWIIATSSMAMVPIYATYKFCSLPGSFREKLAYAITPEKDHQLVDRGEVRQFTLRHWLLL
T2 sequence (Q9WTR4 1-597): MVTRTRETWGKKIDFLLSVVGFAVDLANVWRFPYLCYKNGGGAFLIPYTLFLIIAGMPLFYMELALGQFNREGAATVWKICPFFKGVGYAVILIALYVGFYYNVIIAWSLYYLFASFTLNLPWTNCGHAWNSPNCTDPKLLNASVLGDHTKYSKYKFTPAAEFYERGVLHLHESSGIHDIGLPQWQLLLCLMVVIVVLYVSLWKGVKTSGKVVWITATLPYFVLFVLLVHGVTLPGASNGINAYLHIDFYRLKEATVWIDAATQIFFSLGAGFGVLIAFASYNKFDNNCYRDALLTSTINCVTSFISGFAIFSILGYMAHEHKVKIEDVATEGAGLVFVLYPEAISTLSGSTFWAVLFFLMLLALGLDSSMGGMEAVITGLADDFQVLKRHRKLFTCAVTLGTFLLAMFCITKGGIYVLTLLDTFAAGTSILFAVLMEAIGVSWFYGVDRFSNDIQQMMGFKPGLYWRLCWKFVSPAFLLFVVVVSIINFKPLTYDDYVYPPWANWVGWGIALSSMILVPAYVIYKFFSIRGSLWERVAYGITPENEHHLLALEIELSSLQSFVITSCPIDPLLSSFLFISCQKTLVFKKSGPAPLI

Regarding `Clc1cccc(OCC2C3CCC(CC2c2cccs2)N3)c1Cl` (as salt: fumaric acid salt) [1st compound of method E, (2R,3S)-2-(2,3-Dichlorophenoxymethyl)-8-H-3-(2-thienyl)-8-aza-bicyclo[3.2.1]octane fumaric acid salt], the melting point was 201.2 °C.
Same read-out and setting: as for `c1csc(C2CC3CCC(N3)C2COc2cccc3ccccc23)c1` (as salt: fumaric acid salt) [2nd compound of method E, (2R,3S)-2-(1-Naphthyloxymethyl)-8-H-3-(2-thienyl)-8-aza-bicyclo[3.2.1]octane fumaric acid salt], the figure is 199.1 °C.
As to `CN1C2CCC1[C@H](COc1cccc(Cl)c1Cl)[C@@H](c1cccs1)C2` (stereo partly drawn) [1st compound of method D, (2R,3S)-2-(2,3-Dichlorophenoxymethyl)-8-methyl-3-(2-thienyl)-8-aza-bicyclo[3.2.1]octane fumaric acid salt], the IC50 came out at 0.52 nM in data set [1], 1.9 nM in data set [2] and 300 nM in data set [3].
The matching figures for `Clc1cccc(OCC2C3CCC(CC2c2cccs2)N3)c1Cl` [1st compound of method E, (2R,3S)-2-(2,3-Dichlorophenoxymethyl)-8-H-3-(2-thienyl)-8-aza-bicyclo[3.2.1]octane fumaric acid salt]: 0.74 nM, 1.8 nM and 74 nM.
On to `CN1C2CCC1[C@H](COc1cccc3ccccc13)[C@@H](c1cccs1)C2.O=C(O)/C=C/C(=O)O` (stereo partly drawn) [2nd compound of method D, (2R,3S)-2-(1-Naphthyloxymethyl)-8-methyl-3-(2-thienyl)-8-aza-bicyclo[3.2.1]octane fumaric acid salt], for which the melting point worked out at 203.1 °C. In data set [1], this compound gave a half-inhibitory concentration (IC50) of 0.42 nM. The compound further came in with a 50% inhibitory concentration (IC50) in data set [2] of 3.6 nM. Moreover, in data set [3], the concentration for half-maximal inhibition (IC50) was 360 nM.
Take `c1csc(C2CC3CCC(N3)C2COc2cccc3ccccc23)c1` [2nd compound of method E, (2R,3S)-2-(1-Naphthyloxymethyl)-8-H-3-(2-thienyl)-8-aza-bicyclo[3.2.1]octane fumaric acid salt]: the IC50 in data set [1] came out at 0.54 nM; in data set [2], 1.6 nM; in data set [3], 190 nM.
Compound `CN1C2CCC1[C@H](COc1cccc(Cl)c1Cl)[C@@H](c1ccco1)C2.O=C(O)/C=C/C(=O)O` (stereo partly drawn) [5th compound of method D, (2R,3S)-2-(2,3-Dichlorophenoxymethyl)-8-methyl-3-(2-furanyl)-8-aza-bicyclo[3.2.1]octane fumaric acid salt] registered a melting point of 156.4 to 205.9 °C. In data set [1], this compound registered an IC50 of 0.36 nM. Moreover, the IC50 in data set [2] was 0.9 nM. Besides, inhibition in data set [3] was half-maximal at 310 nM (IC50).
In the case of `CN1C2CCC1[C@H](COc1cccc3ccccc13)[C@@H](c1ccco1)C2` (stereo partly drawn) [6th compound of method D, (2R,3S)-2-(1-Naphthyloxymethyl)-8-methyl-3-(2-furanyl)-8-aza-bicyclo[3.2.1]octane fumaric acid salt], the IC50 in data set [1] came to 0.53 nM; in data set [2] it was 3 nM; in data set [3] it was 920 nM.
